Structures can show the parent of a compound that is named as a salt.
What was measured:
[1] = molecular target: T1, Recombinant human SHP2 full-length protein (Homo sapiens, UniProt Q06124); assay: SHP2 activity inhibition measurement (fluorescence detection, surrogate substrate DiFMUP); format: biochemical; conditions: recombinant human SHP2 full-length protein activated with diphosphopeptide
T1 construct: Recombinant human SHP2 full-length protein
T1 sequence (Q06124 1-593): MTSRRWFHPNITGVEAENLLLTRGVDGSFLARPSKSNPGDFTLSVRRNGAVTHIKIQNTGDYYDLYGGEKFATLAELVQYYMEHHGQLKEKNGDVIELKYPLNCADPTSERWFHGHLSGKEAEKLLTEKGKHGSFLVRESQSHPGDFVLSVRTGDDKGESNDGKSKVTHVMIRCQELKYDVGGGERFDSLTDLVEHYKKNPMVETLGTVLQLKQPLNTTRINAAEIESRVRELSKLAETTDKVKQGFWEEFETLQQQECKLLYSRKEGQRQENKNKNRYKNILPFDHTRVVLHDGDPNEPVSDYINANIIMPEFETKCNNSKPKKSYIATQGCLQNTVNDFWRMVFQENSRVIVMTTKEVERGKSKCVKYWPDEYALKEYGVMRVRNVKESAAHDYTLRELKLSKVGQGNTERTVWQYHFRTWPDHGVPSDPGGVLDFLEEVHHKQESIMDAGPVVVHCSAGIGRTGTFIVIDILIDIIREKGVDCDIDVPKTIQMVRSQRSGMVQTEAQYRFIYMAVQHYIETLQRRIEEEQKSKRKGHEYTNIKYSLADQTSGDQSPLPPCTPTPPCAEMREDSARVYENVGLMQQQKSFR
Procedure: SHP2 activity inhibition measurement
The effect of the compound of the present invention on SHP2 activity is evaluated by rapid fluorescence detection method using the surrogate substrate DiFMUP.
(§1) The experimental method is outlined as follows:
Recombinant human SHP2 full-length protein was expressed and purified by the protein purification and identification platform of Tsinghua University; diphosphopeptide (H2N-LN(pY)IDLDLV-(dPEG8)LST(pY)ASINFQK-amide) was synthesized by Nanjing GenScript Biotechnology Co., Ltd.; surrogate substrate DiFMUP was purchased from Thermo Fisher Scientific (Cat. No. D6567); reaction buffer contained the following components: 60 mM HEPES (pH 7.2), 75 mM NaCl, 75 mM KCl, 1 mM EDTA, 0.05% TWEEN 20, and 5 mM DTT.
The compound was dissolved in DMSO (Sigma, Cat. No. D5879) and diluted to 100 μM. The resulting solution was serially diluted 4-fold with DMSO to a minimum concentration of 6.1 nM, and each concentration point was diluted 25-fold with the reaction buffer.
10 μL of compound solution and 10 μL of 0.25 nM SHP2 protein solution were added to a 384-well microplate (Corning, Cat. No. 3575), mixed well, and incubated at room temperature for 30 min. 10 μL of 0.5 μM diphosphopeptide (dissolved in the reaction buffer) was added, mixed well, and incubated at room temperature for 30 to 60 min. Subsequently, 10 μL of 60 μM DiFMUP solution (dissolved in the reaction buffer) was added, mixed well, and let stand at room temperature. After 30 min, fluorescence signals were measured at 340 nm (excitation wavelength)/450 nm (emission wavelength) using a microplate reader (EnSpire, Perkin Elmer). The fluorescence intensity value was positively correlated with the degree of dephosphorylation of the substrate, thereby reflecting the catalytic activity of SHP2. […] An inhibition curve of the compound was plotted by XLfit software and the inhibitory IC50 was calculated.

[2] = tested on: human non-small cell lung cancer cell line NCI-H358; assay: NCI-H358 cell proliferation inhibition (luminescent cell viability assay, CTG); format: cell-based; conditions: 120 h, NCI-H358 cells, 5 days, CellTiter-Glo
Procedure: Determination of NCI-H358 cell proliferation inhibition
The effect of the compound of the present invention on proliferation of human non-small cell lung cancer cell line NCI-H358 is evaluated by luminescent cell viability assay.
as §1
The compound was dissolved in DMSO (Sigma, Cat. No. D5879) and diluted to 5 mM. The resulting solution was serially diluted 4-fold with DMSO to a minimum concentration of […], and each concentration point was diluted 50-fold with RPMI 1640 Medium (Thermo Fisher Scientific, Cat. No. 11995073). When the IC50 value of the compound was low, the initial concentration of the compound was further reduced.
NCI-H358 cells (ATCC, Cat. No. CRL-5807) were cultured in RPMI 1640 Complete Medium [RPMI 1640 Medium was supplemented with 10% FBS (GBICO, Cat. No. 10099-141) and 100 units/mL Penicillin-Streptomycin (Thermo Fisher Scientific, Cat. No. 15140122)]. The cells (15,000 cells/mL) were seeded in 90 μL of Complete Medium on a 96-well plate. After culturing overnight, 10 μL of compound solution was added to each well and cultured at 37° C. in a 5% CO2 incubator for 5 days. According to the instruction from the CellTilter-Glo (CTG) kit (Promega, Cat. No. G7572), the cell culture plate was removed from incubator and equilibrated to room temperature. The cells were lysed fully with 50 μL of CTG reagent and placed at room temperature for 10 min. A luminescence signal was read by the microplate reader (EnVision, Perkin Elmer). […] An inhibition curve of the compound was plotted by XLfit software and the inhibitory IC50 was calculated.

[3] = molecular target: hERG potassium channel (Homo sapiens, UniProt Q12809); conditions: 3 μM test compound, whole-cell patch clamp, HEK293-hERG, room temperature
Chain of hERG potassium channel (Q12809 whole entry): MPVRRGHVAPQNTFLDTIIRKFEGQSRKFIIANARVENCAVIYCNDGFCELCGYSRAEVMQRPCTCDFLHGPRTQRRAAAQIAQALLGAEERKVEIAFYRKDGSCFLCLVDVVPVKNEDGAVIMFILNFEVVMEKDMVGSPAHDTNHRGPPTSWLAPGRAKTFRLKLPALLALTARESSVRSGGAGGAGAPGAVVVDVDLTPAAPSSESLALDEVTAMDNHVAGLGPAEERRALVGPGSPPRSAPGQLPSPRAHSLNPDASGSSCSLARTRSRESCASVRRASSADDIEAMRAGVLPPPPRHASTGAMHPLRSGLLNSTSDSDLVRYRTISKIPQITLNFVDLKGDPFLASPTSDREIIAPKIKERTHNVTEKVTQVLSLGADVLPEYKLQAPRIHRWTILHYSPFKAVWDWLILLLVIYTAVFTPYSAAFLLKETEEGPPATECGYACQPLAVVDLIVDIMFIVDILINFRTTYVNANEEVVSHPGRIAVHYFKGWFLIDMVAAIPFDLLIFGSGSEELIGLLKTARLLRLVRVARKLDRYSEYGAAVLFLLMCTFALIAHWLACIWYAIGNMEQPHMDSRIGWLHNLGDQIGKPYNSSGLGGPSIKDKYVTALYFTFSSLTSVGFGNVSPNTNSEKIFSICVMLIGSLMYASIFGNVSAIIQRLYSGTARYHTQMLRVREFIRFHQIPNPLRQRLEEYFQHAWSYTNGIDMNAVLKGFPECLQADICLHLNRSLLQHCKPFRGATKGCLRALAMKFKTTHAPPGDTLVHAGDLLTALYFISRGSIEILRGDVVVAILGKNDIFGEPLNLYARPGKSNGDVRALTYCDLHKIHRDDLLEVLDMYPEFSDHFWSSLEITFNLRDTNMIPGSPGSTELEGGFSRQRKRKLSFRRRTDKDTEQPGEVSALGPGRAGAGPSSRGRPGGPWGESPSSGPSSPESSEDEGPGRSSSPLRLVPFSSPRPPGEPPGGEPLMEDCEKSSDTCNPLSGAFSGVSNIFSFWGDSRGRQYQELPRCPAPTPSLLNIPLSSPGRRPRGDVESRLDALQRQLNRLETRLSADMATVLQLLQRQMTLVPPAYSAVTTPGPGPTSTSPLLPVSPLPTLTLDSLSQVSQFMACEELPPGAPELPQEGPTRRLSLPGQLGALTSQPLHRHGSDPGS
Procedure: All electrophysiological experiments were conducted at room temperature.

Cn1cc2c(Cl)c(Sc3cnc(N4CCC5(CCC[C@H]5N)CC4)n(C)c3=O)ccc2n1 [Compound 7, (R)-2-(1-amino-8-azaspiro[4.5]decan-8-yl)-5-((4-chloro-2-methyl-2H-indazole-5-yl)thio)-3-methylpyrimidin-4(3H)-one hydrochloride]
IC50 [1]: 12 nM | IC50 [2]: 575 nM | hERG current inhibition percentage at 3 μM solubility (n = 2) [3]: 10%

Reference: patent publication US20230219946A1, “PYRIMIDIN-4(3H)-ONE HETEROCYCLIC COMPOUND, PREPARATION METHOD THEREOF, AND PHARMACEUTICAL USE THEREOF” (Beijing Innocare Pharma Tech Co., Ltd., priority 2020, published 2023)
